# Laboratory results taken from PubChem BioAssay AID248 (DTP/NCI, 2004).
# Several values for one entry are separate records, joined by “and”; a condition that tells them apart may be missing. Equal values may be shown once. Inconclusive results and toxic doses are left out.
# Tested on: L1210 leukemia ip in BDF1 mice, survival T/C
# Assay: NCI In Vivo Anticancer Drug Screen. Data for tumor model L1210 Leukemia (intraperitoneal) in B6D2F1 (BDF1) mice
# Settings: endpoint: mean survival time, higher = longer survival
# Outline: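 Each compound was tested against a transplantable tumor grown in mice. The endpoint was survival, with treated animals benchmarked against vehicle controls as a simple ratio.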
# [1] = dose: 100.0 mg/kg/injection, schedule: Q01DX001 (ip), vehicle: carboxymethylcellulose (CMC)
# [2] = dose: 100.0 mg/kg/injection, schedule: Q04DX003 (ip), vehicle: saline with Tween-80
# [3] = dose: 200.0 mg/kg/injection, schedule: Q01DX001 (ip), vehicle: carboxymethylcellulose (CMC)
# [4] = dose: 200.0 mg/kg/injection, schedule: Q04DX003 (ip), vehicle: saline with Tween-80
# [5] = dose: 400.0 mg/kg/injection, schedule: Q01DX001 (ip), vehicle: carboxymethylcellulose (CMC)
# [6] = dose: 400.0 mg/kg/injection, schedule: Q04DX003 (ip), vehicle: saline with Tween-80
# [7] = dose: 100.0 mg/kg/injection, schedule: Q01DX001 (ip), vehicle: Klucel (hydroxypropylcellulose) (HPC)
# [8] = dose: 200.0 mg/kg/injection, schedule: Q01DX001 (ip), vehicle: Klucel (hydroxypropylcellulose) (HPC)
# [9] = dose: 400.0 mg/kg/injection, schedule: Q01DX001 (ip), vehicle: Klucel (hydroxypropylcellulose) (HPC)
# [10] = dose: 75.0 mg/kg/injection, schedule: Q04DX003 (ip), vehicle: saline
# [11] = dose: 100.0 mg/kg/injection, schedule: Q04DX002 (ip), vehicle: saline with Tween-80
# [12] = dose: 200.0 mg/kg/injection, schedule: Q04DX002 (ip), vehicle: saline with Tween-80
# [13] = dose: 100.0 mg/kg/injection, schedule: Q01DX009 (ip), vehicle: saline with Tween-80
# [14] = dose: 100.0 mg/kg/injection, schedule: Q04DX002 (ip), vehicle: Klucel (hydroxypropylcellulose) (HPC)
# [15] = dose: 200.0 mg/kg/injection, schedule: Q04DX002 (ip), vehicle: Klucel (hydroxypropylcellulose) (HPC)
# [16] = dose: 50.0 mg/kg/injection, schedule: Q01DX001 (ip), vehicle: carboxymethylcellulose (CMC)
# [17] = dose: 12.5 mg/kg/injection, schedule: Q04DX003 (ip), vehicle: saline with Tween-80
# [18] = dose: 25.0 mg/kg/injection, schedule: Q04DX003 (ip), vehicle: saline with Tween-80
# [19] = dose: 25.0 mg/kg/injection, schedule: Q01DX009 (ip), vehicle: saline with Tween-80
# [20] = dose: 100.0 mg/kg/injection, schedule: Q04DX003 (ip), vehicle: saline sonified
# [21] = dose: 200.0 mg/kg/injection, schedule: Q04DX003 (ip), vehicle: saline sonified
# [22] = dose: 400.0 mg/kg/injection, schedule: Q04DX003 (ip), vehicle: saline sonified
structure (smiles),measurement,setting,value
CCSC(SCC)C1OC(C)(C)OC1C1COC(C)(C)O1 (stereo unspecified),T/C,[1],103 % of control
same,T/C,[2],96 % of control
same,T/C,[3],103 % of control
same,T/C,[4],94 % of control
same,T/C,[5],103 % of control
same,T/C,[6],91 % of control
O=N/N=c1/sc2ccccc2n1-c1ccccc1,T/C,[7],103 % of control
same,T/C,[8],94 % of control
same,T/C,[9],100 % of control
CCC(=O)c1ccc(O)c(C)c1,T/C,"dose: 55.5 mg/kg/injection, schedule: Q01DX Z (ip), vehicle: methylcellulose (MC)",98 % of control
same,T/C,"dose: 83.3 mg/kg/injection, schedule: Q01DX Z (ip), vehicle: methylcellulose (MC)",96 % of control
same,T/C,"dose: 125.0 mg/kg/injection, schedule: Q01DX Z (ip), vehicle: methylcellulose (MC)",102 % of control
same,T/C,"dose: 187.5 mg/kg/injection, schedule: Q01DX Z (ip), vehicle: methylcellulose (MC)",103 % of control
[N-]=[N+]=NCCCCCCCCCCN=[N+]=[N-],T/C,[10],102 % of control
same,T/C,"dose: 150.0 mg/kg/injection, schedule: Q04DX003 (ip), vehicle: saline",101 % of control
same,T/C,"dose: 300.0 mg/kg/injection, schedule: Q04DX003 (ip), vehicle: saline",91 % of control
Oc1ccc2c(c1)CCCC2,T/C,[10],102 % of control
Nc1ncnc2c1CP(=O)(c1ccccc1)CC2 (stereo unspecified),T/C,[11],103 % of control
same,T/C,[12],103 % of control
same,T/C,"dose: 400.0 mg/kg/injection, schedule: Q04DX002 (ip), vehicle: saline with Tween-80",103 % of control
O=C(CCCCC(=O)OCC1COCO1)OCC1COCO1 (stereo unspecified),T/C,"dose: 222.0 mg/kg/injection, schedule: Q01DX Z (ip), vehicle: methylcellulose (MC)",98 % of control
same,T/C,"dose: 333.0 mg/kg/injection, schedule: Q01DX Z (ip), vehicle: methylcellulose (MC)",98 % of control
same,T/C,"dose: 500.0 mg/kg/injection, schedule: Q01DX Z (ip), vehicle: methylcellulose (MC)",98 % of control
CCCCCCC(C)O[Si](C)c1ccc(-c2ccccc2)cc1 (stereo unspecified),T/C,[13],100 % of control
same,T/C,[2],93 % of control
same,T/C,"dose: 200.0 mg/kg/injection, schedule: Q01DX009 (ip), vehicle: saline with Tween-80",105 % of control
same,T/C,[4],94 % of control
same,T/C,"dose: 400.0 mg/kg/injection, schedule: Q01DX009 (ip), vehicle: saline with Tween-80",102 % of control
same,T/C,[6],100 % of control
NNC(=O)CNc1ccc(Br)cc1,T/C,[14],112 % of control
same,T/C,[15],106 % of control
O=C(NO)c1ccc(F)cc1,T/C,[1],103 % of control
same,T/C,[3],97 % of control
same,T/C,[5],92 % of control
CC(C)=CCc1cc(OC(=O)OCc2ccccc2)c2ccccc2c1O,T/C,[7],96 % of control
same,T/C,[8],93 % of control
same,T/C,[9],101 % of control
C=CCCN(c1ccc(C(=O)OCC)cc1)S(=O)(=O)c1ccc(C)cc1,T/C,[16],102 % of control
same,T/C,[1],100 % of control
same,T/C,[3],107 % of control
same,T/C,[5],96 % of control
CCCCCCCCCCC(=O)N1CCOCC1,T/C,[17],98 % of control
same,T/C,[18],95 % of control
same,T/C,"dose: 50.0 mg/kg/injection, schedule: Q04DX003 (ip), vehicle: saline with Tween-80",101 % of control
CC(CC(=O)O)Nc1ccc(Cl)c(Cl)c1 (stereo unspecified),T/C,[19],100 % of control
same,T/C,"dose: 50.0 mg/kg/injection, schedule: Q01DX009 (ip), vehicle: saline with Tween-80",102 % of control
same,T/C,[13],94 % of control
same,T/C,[2],107 % of control
same,T/C,[4],96 % of control
CN(N=O)C(=O)Nc1ccc(NC(=O)N(C)N=O)cc1,T/C,"dose: 30.0 mg/kg/injection, schedule: Q01DX Z (ip), vehicle: carboxymethylcellulose (CMC)",162 % of control
same,T/C,"dose: 40.0 mg/kg/injection, schedule: Q01DX Z (ip), vehicle: carboxymethylcellulose (CMC)",151 % of control
same,T/C,"dose: 45.0 mg/kg/injection, schedule: Q01DX001 (ip), vehicle: carboxymethylcellulose (CMC)",120 % of control
same,T/C,"dose: 50.0 mg/kg/injection, schedule: Q01DX Z (ip), vehicle: carboxymethylcellulose (CMC)",97 % of control
same,T/C,"dose: 360.0 mg/kg/injection, schedule: Q01DX001 (ip), vehicle: carboxymethylcellulose (CMC)",91 % of control
CN(C)C(=O)Sc1ccc(C(=O)O)cc1,T/C,"dose: 100.0 mg/kg/injection, schedule: Q04DX003 (ip), vehicle: gum acacia",109 % of control
same,T/C,"dose: 200.0 mg/kg/injection, schedule: Q04DX003 (ip), vehicle: gum acacia",98 % of control
same,T/C,"dose: 400.0 mg/kg/injection, schedule: Q04DX003 (ip), vehicle: gum acacia",113 % of control
O=C(O)/C=N/OCc1cc2c(cc1Cl)OCO2,T/C,[20],95 % of control
same,T/C,[21],92 % of control
same,T/C,[22],94 % of control
N=C(N)SCC(=O)c1ccc([N+](=O)[O-])cc1,T/C,[11],88 % of control
same,T/C,[12],95 % of control
CC1=C(C)CC2C(=O)C=CC(=O)C2C1 (stereo unspecified),T/C,"dose: 50.0 mg/kg/injection, schedule: Q01DX009 (ip), vehicle: water",97 % of control
same,T/C,"dose: 100.0 mg/kg/injection, schedule: Q01DX009 (ip), vehicle: water",97 % of control and 101 % of control
same,T/C,"dose: 100.0 mg/kg/injection, schedule: Q04DX003 (ip), vehicle: water",89 % of control
same,T/C,"dose: 200.0 mg/kg/injection, schedule: Q01DX009 (ip), vehicle: water",95 % of control
same,T/C,"dose: 200.0 mg/kg/injection, schedule: Q04DX003 (ip), vehicle: water",101 % of control
O=C(O)c1cc(CBr)ccc1CBr,T/C,"dose: 6.25 mg/kg/injection, schedule: Q01DX009 (ip), vehicle: saline with Tween-80",100 % of control
same,T/C,"dose: 6.25 mg/kg/injection, schedule: Q04DX003 (ip), vehicle: saline with Tween-80",93 % of control
same,T/C,"dose: 12.5 mg/kg/injection, schedule: Q01DX009 (ip), vehicle: saline with Tween-80",103 % of control
same,T/C,[17],94 % of control
same,T/C,[19],95 % of control
same,T/C,[18],102 % of control
CC(=O)SCN1C(=O)C2C3CCC(O3)C2C1=O (stereo unspecified),T/C,[14],91 % of control
same,T/C,[15],91 % of control
same,T/C,"dose: 400.0 mg/kg/injection, schedule: Q04DX002 (ip), vehicle: Klucel (hydroxypropylcellulose) (HPC)",105 % of control
C=CCC(B1OCCO1)B1OCCO1,T/C,[20],106 % of control
same,T/C,[21],95 % of control
same,T/C,[22],110 % of control
Cc1ccc2cc(N(C)C)ccc2[n+]1C,T/C,"dose: 3.13 mg/kg/injection, schedule: Q04DX003 (ip), vehicle: saline",101 % of control
same,T/C,"dose: 6.25 mg/kg/injection, schedule: Q04DX003 (ip), vehicle: saline",106 % of control
same,T/C,"dose: 12.5 mg/kg/injection, schedule: Q04DX003 (ip), vehicle: saline",96 % of control and 109 % of control
CN1CCCCCCCC(=O)C(OC(=O)c2ccc([N+](=O)[O-])cc2)CCCCCCC1 (stereo unspecified),T/C,[16],95 % of control
same,T/C,[1],97 % of control
same,T/C,[3],95 % of control
same,T/C,[5],95 % of control
CC(=O)OC1=CC2(OC(C)=O)CCC1C1C(=O)OC(=O)C12 (stereo unspecified),T/C,"dose: 100.0 mg/kg/injection, schedule: Q01DX001 (ip), vehicle: saline",102 % of control
same,T/C,"dose: 100.0 mg/kg/injection, schedule: Q04DX003 (ip), vehicle: acetone",93 % of control
same,T/C,"dose: 200.0 mg/kg/injection, schedule: Q01DX001 (ip), vehicle: saline",91 % of control
same,T/C,"dose: 200.0 mg/kg/injection, schedule: Q04DX003 (ip), vehicle: acetone",96 % of control
same,T/C,"dose: 400.0 mg/kg/injection, schedule: Q01DX001 (ip), vehicle: saline",90 % of control
